Data set [1] in a line: Solubility in PBS (LC/UV AUC trend). The conditions noted are these: PBS pH 7.4, 0.2 mg/ml; rating 1 (good) to 5 (poor).
The target of the next data set is T1, GnRHR (Homo sapiens, UniProt P30968).
T1 construct: host or cells: CHO-K1 (CHO-K1/GnRHR/Ga15)
T1 sequence (P30968 1-328): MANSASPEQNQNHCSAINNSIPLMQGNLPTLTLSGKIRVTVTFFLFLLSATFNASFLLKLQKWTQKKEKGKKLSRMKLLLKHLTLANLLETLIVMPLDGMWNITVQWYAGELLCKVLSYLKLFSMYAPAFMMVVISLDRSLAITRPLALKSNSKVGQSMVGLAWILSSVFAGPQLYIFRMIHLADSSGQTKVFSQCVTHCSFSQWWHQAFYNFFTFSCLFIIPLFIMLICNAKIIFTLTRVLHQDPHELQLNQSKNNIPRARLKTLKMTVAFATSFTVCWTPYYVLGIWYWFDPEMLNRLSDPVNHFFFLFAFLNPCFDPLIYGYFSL
The experiment in a line: Calcium assay in CHO-K1 cells (Genscript), FLIPR. The data set is classed as cell-based. To be noted: CHO-K1/GnRHR/Ga15 cells, relative to agonist control, read-out: GNRHR Stimulation at 1 μM. The procedure: Test article sample solutions were dissolved in HBSS buffer (with 20 mM HEPES buffer, pH 7.4) to form the 5× working solution. FLIPR® Calcium 4 assay kit from Molecular devices (R8141) was used as required. In brief, CHO-K1 cells expressing GnRHR (CHO-K1/GnRHR/Ga15, Genscript accession NM_000406) were respectively cultured in the 10-cm dishes and maintained at 37° C./5% CO2. CHO-K1 cells expressing GNRHR were respectively seeded in a 384-well black-wall, clear-bottom plate at a density of 15,000 cells per well in 20 μl of growth medium about 18 hours prior to the day of experiment and maintained at 37° C./5% CO2. Then, 20 μl of dye loading solution was added into the wells and the plates were subsequently placed into a 37° C. incubator for 60 minutes, followed by a 15 minutes' incubation at room temperature. At last, 10 μl of compounds or control agonist were added into respective wells of the assay plate during reading in FLIPR. The plate containing 5× compound and control agonist solution was placed in FLIPR. Solutions were added into the cell plate automatically at the 20 seconds and the fluorescence signal was monitored for an additional 100 seconds (21 sec to 120 sec.). Data were recorded by ScreenWorks (version 3.1) as FMD files with FLIPR and stored on the GenScript computer network for off-line analysis. Data acquisition and analyses was performed using ScreenWorks (version 3.1) program and exported to Excel. The average value of the first 20 seconds' reading was calculated as the baseline and the relative fluorescent units (ΔRFU) intensity values were calculated by subtracting the average value of baseline from the maximum fluorescent units (21 s to 120 s).
The % Stimulation was calculated with the following equation: % Stimulation=(ΔRFUCompound−ΔRFUBackground)/(ΔRFUAgonist control−ΔRFUBackground)×100
Dose response curves were fitted with four-parameter-logistic-equation by the software GraphPad Prism 6.
Equation: four parameter logistic equation. Y=Bottom+(Top-Bottom)/(1+10^((Log EC50−X)×Hillslope))
X is the logarithm of concentration. Y is the response.

Data set [2] can be described thus: Stability in aqueous media (PBS pH 7.4). The class given is physicochemical. Also on record: unit not given here. To be noted: phosphate buffer solution (PBS); PBS pH 7.4, 37° C., samples at T=0, 4, 24, 96 h; read-out: Stability grading (t1/2). From the text:
LC/MS data was collected for compound identity.

SMILES strings stand for the structures. Non-standard residues stand in square brackets, D forms with d. Residues, ends and D or L forms follow the SMILES beside them. *: point of attachment. dHis(τ-Bn) = N[C@H](Cc1cn(Cc2ccccc2)cn1)C(=O)O; d2Nal = N[C@H](Cc1ccc2ccccc2c1)C(=O)O; pGlu = O=C1CC[C@@H](C(=O)O)N1; tBu = CC(C)(C)*

As to `CCNC(=O)[C@@H]1CCCN1C(=O)[C@H](CCCNC(=N)N)NC(=O)[C@H](CC(C)C)NC(=O)[C@@H](COC(C)(C)C)NC(=O)[C@H](Cc1ccc(O)cc1)NC(=O)[C@H](CO)NC(=O)[C@H](Cc1c[nH]c2ccccc12)NC(=O)[C@H](Cc1cnc[nH]1)NC(=O)[C@@H]1CCC(=O)N1` [Buserelin acetate, reference compound], the Solubility grading in data set [1] stood at 1.

With `CCNC(=O)[C@@H]1CCCN1C(=O)[C@H](CCCNC(=N)N)NC(=O)[C@H](CC(C)C)NC(=O)[C@@H](COC(C)(C)C)NC(=O)[C@H](Cc1c[nH]cn1)NC(=O)[C@H](CO)NC(=O)[C@H](Cc1c[nH]c2ccccc12)NC(=O)[C@H](Cc1c[nH]cn1)NC(=O)[C@@H]1CCC(=O)N1` [Compound 6, pGlu-His-Trp-Ser-His-D-Ser(tBu)-Leu-Arg-Pro-NHEt] ([pGlu]HWSH[dS](tBu)LRP-NHEt), the activation at 1 µM at GnRHR was found to be 88%. In data set [1], this compound registered a Solubility grading of 1. In addition, the half-life at 0.2 mg/ml in data set [2] was over 96.

For the compound `CCNC(=O)[C@@H]1CCCN1C(=O)[C@H](Cc1ccc(O)cc1)NC(=O)[C@H](CC(C)C)NC(=O)[C@@H](COC(C)(C)C)NC(=O)[C@H](Cc1ccc(O)cc1)NC(=O)[C@H](CO)NC(=O)[C@H](Cc1c[nH]c2ccccc12)NC(=O)[C@H](Cc1c[nH]cn1)NC(=O)[C@@H]1CCC(=O)N1` [Compound 9, pGlu-His-Trp-Ser-Tyr-D-Ser(tBu)-Leu-Tyr-Pro-NHEt] ([pGlu]HWSY[dS](tBu)LYP-NHEt), at GnRHR, the activation at 1 µM was 78%. In data set [1], the Solubility grading is 1. Moreover, in data set [2], the half-life at 0.2 mg/ml is over 96.

With `CCNC(=O)[C@@H]1CCCN1C(=O)[C@H](CCCNC(=N)N)NC(=O)[C@H](Cc1c[nH]c2ccccc12)NC(=O)[C@@H](COC(C)(C)C)NC(=O)[C@H](Cc1c[nH]cn1)NC(=O)[C@H](CO)NC(=O)[C@H](Cc1c[nH]c2ccccc12)NC(=O)[C@H](Cc1c[nH]cn1)NC(=O)[C@@H]1CCC(=O)N1` [Compound 10, pGlu-His-Trp-Ser-His-D-Ser(tBu)-Trp-Arg-Pro-NHEt] ([pGlu]HWSH[dS](tBu)WRP-NHEt), the activation at 1 µM on GnRHR is 81%. Moreover, the Solubility grading in data set [1] is 1. Also, in data set [2], the half-life at 0.2 mg/ml is over 96.

With `CCNC(=O)[C@@H]1CCCN1C(=O)[C@H](Cc1ccc(O)cc1)NC(=O)[C@H](CC(C)C)NC(=O)[C@@H](COC(C)(C)C)NC(=O)[C@H](Cc1c[nH]cn1)NC(=O)[C@H](CO)NC(=O)[C@H](Cc1c[nH]c2ccccc12)NC(=O)[C@H](Cc1c[nH]cn1)NC(=O)[C@@H]1CCC(=O)N1` [Compound 11, pGlu-His-Trp-Ser-His-D-Ser(tBu)-Leu-Tyr-Pro-NHEt] ([pGlu]HWSH[dS](tBu)LYP-NHEt), the activation at 1 µM at GnRHR was determined as 76%. The compound further yielded a Solubility grading in data set [1] of 1. The half-life at 0.2 mg/ml in data set [2] was over 96.

As for `CC(C)C[C@H](NC(=O)[C@@H](Cc1ccc2ccccc2c1)NC(=O)[C@H](Cc1c[nH]cn1)NC(=O)[C@H](CO)NC(=O)[C@H](Cc1c[nH]c2ccccc12)NC(=O)[C@H](Cc1c[nH]cn1)NC(=O)[C@@H]1CCC(=O)N1)C(=O)N[C@@H](CCCNC(=N)N)C(=O)N1CCC[C@H]1C(=O)NCC(N)=O` [Compound 23, pGlu-His-Trp-Ser-His-D-Nal-Leu-Arg-Pro-Gly-amide] ([pGlu]HWSH[d2Nal]LRPG-NH2), the activation at 1 µM at GnRHR came to 106%. The Solubility grading in data set [1] is reported as 1. For the same compound, the half-life at 0.2 mg/ml in data set [2] is over 96.

On to `N=C(N)NCCC[C@H](NC(=O)[C@H](Cc1c[nH]c2ccccc12)NC(=O)[C@@H](Cc1ccc2ccccc2c1)NC(=O)[C@H](Cc1ccc(O)cc1)NC(=O)[C@H](CO)NC(=O)[C@H](Cc1c[nH]c2ccccc12)NC(=O)[C@H](Cc1c[nH]cn1)NC(=O)[C@@H]1CCC(=O)N1)C(=O)N1CCC[C@H]1C(=O)NCC(N)=O` [Compound 24, pGlu-His-Trp-Ser-Tyr-D-Nal-Trp-Arg-Pro-Gly-amide] ([pGlu]HWSY[d2Nal]WRPG-NH2), for which the activation at 1 µM on GnRHR amounted to 87%. For the same compound, the Solubility grading in data set [1] is 5. Further, in data set [2], the half-life at 0.2 mg/ml is under 96.

In the case of `CCNC(=O)[C@@H]1CCCN1C(=O)[C@H](Cc1ccc(O)cc1)NC(=O)[C@H](CC(C)C)NC(=O)[C@@H](CC(C)C)NC(=O)[C@H](Cc1ccc(O)cc1)NC(=O)[C@H](CO)NC(=O)[C@H](Cc1c[nH]c2ccccc12)NC(=O)[C@H](Cc1c[nH]cn1)NC(=O)[C@@H]1CCC(=O)N1` [Compound 45, pGlu-His-Trp-Ser-Tyr-D-Leu-Leu-Tyr-Pro-NHEt] ([pGlu]HWSY[dL]LYP-NHEt), at GnRHR, the activation at 1 µM amounted to 105%. For the same compound, in data set [2], the half-life at 0.2 mg/ml is over 96.

As to `CCNC(=O)[C@@H]1CCCN1C(=O)[C@H](Cc1ccc(O)cc1)NC(=O)[C@H](CC(C)C)NC(=O)[C@@H](CC(C)C)NC(=O)[C@H](Cc1c[nH]cn1)NC(=O)[C@H](CO)NC(=O)[C@H](Cc1c[nH]c2ccccc12)NC(=O)[C@H](Cc1c[nH]cn1)NC(=O)[C@@H]1CCC(=O)N1` [Compound 48, pGlu-His-Trp-Ser-His-D-Leu-Leu-Tyr-Pro-NHEt] ([pGlu]HWSH[dL]LYP-NHEt), the activation at 1 µM at GnRHR is 118%. In addition, in data set [2], the half-life at 0.2 mg/ml was over 96.

On to `CCNC(=O)[C@@H]1CCCN1C(=O)[C@H](Cc1ccc(O)cc1)NC(=O)[C@H](Cc1c[nH]c2ccccc12)NC(=O)[C@@H](CC(C)C)NC(=O)[C@H](Cc1ccc(O)cc1)NC(=O)[C@H](CO)NC(=O)[C@H](Cc1c[nH]c2ccccc12)NC(=O)[C@H](Cc1c[nH]cn1)NC(=O)[C@@H]1CCC(=O)N1` [Compound 49, pGlu-His-Trp-Ser-Tyr-D-Leu-Trp-Tyr-Pro-NHEt] ([pGlu]HWSY[dL]WYP-NHEt), for which the activation at 1 µM on GnRHR came to 77%. The half-life at 0.2 mg/ml in data set [2] is over 96.

Take `CCNC(=O)[C@@H]1CCCN1C(=O)[C@H](Cc1ccc(O)cc1)NC(=O)[C@H](CC(C)C)NC(=O)[C@@H](Cc1cn(Cc2ccccc2)cn1)NC(=O)[C@H](Cc1ccc(O)cc1)NC(=O)[C@H](CO)NC(=O)[C@H](Cc1c[nH]c2ccccc12)NC(=O)[C@H](Cc1c[nH]cn1)NC(=O)[C@@H]1CCC(=O)N1` [Compound 59, pGlu-His-Trp-Ser-Tyr-D-Bhi-Leu-Tyr-Pro-NHEt] ([pGlu]HWSY[dHis(τ-Bn)]LYP-NHEt): the activation at 1 µM at GnRHR came to 85%. Besides, the half-life at 0.2 mg/ml in data set [2] was under 96.

As to `CCNC(=O)[C@@H]1CCCN1C(=O)[C@H](CCCNC(=N)N)NC(=O)[C@H](Cc1c[nH]c2ccccc12)NC(=O)[C@@H](Cc1cn(Cc2ccccc2)cn1)NC(=O)[C@H](Cc1c[nH]cn1)NC(=O)[C@H](CO)NC(=O)[C@H](Cc1c[nH]c2ccccc12)NC(=O)[C@H](Cc1c[nH]cn1)NC(=O)[C@@H]1CCC(=O)N1` [Compound 60, pGlu-His-Trp-Ser-His-D-Bhi-Trp-Arg-Pro-NHEt] ([pGlu]HWSH[dHis(τ-Bn)]WRP-NHEt), the activation at 1 µM at GnRHR worked out at 102%. In data set [2], the half-life at 0.2 mg/ml was over 96.

For the compound `CCNC(=O)[C@@H]1CCCN1C(=O)[C@H](Cc1ccc(O)cc1)NC(=O)[C@H](CC(C)C)NC(=O)[C@@H](Cc1cn(Cc2ccccc2)cn1)NC(=O)[C@H](Cc1c[nH]cn1)NC(=O)[C@H](CO)NC(=O)[C@H](Cc1c[nH]c2ccccc12)NC(=O)[C@H](Cc1c[nH]cn1)NC(=O)[C@@H]1CCC(=O)N1` [Compound 61, pGlu-His-Trp-Ser-His-D-Bhi-Leu-Tyr-Pro-NHEt] ([pGlu]HWSH[dHis(τ-Bn)]LYP-NHEt), the activation at 1 µM on GnRHR stood at 112%. Further, the half-life at 0.2 mg/ml in data set [2] is over 96.

Take `NC(=O)CNC(=O)[C@@H]1CCCN1C(=O)[C@H](Cc1ccc(O)cc1)NC(=O)[C@H](Cc1c[nH]c2ccccc12)NC(=O)[C@@H](Cc1c[nH]c2ccccc12)NC(=O)[C@H](Cc1c[nH]cn1)NC(=O)[C@H](CO)NC(=O)[C@H](Cc1c[nH]c2ccccc12)NC(=O)[C@H](Cc1c[nH]cn1)NC(=O)[C@@H]1CCC(=O)N1` [Compound 65, pGlu-His-Trp-Ser-His-D-Trp-Trp-Tyr-Pro-Gly-amide] ([pGlu]HWSH[dW]WYPG-NH2): at GnRHR, the activation at 1 µM worked out at 72%. For the same compound, the half-life at 0.2 mg/ml in data set [2] was over 96.

For the origin of these results see patent US11434258B2, “Compounds (immunorhelins)” (ISR IMMUNE SYSTEM REGULATION HOLDING AB (PUBL), priority 2017, dated 2022).
